Data: US20060276445A1, “Bicyclic 6-alkylidene-penems as class-D beta-lactamases inhibitors” (priority 2005, published 2006)
Each block holds one molecule with its values, some of them ahead of it.

Columns and labels:
[1] = test system: E. coli GC 2883 (OXA-10 + PSE-2); experiment: Antimicrobial susceptibility testing, microbroth dilution (NCCLS), piperacillin combined with β-lactamase inhibitor; format: cell-based; details: MIC of piperacillin combined with a constant amount (4 ug/ml) of the inhibitor; class-D producing E. coli GC 2883 (OXA-10 + PSE-2); 35° C. for 18 hours
Protocol: Antimicrobial susceptibility testing. The in vitro activities of the antibiotic, piperacillin in this case, against resistant pathogens expressing class-D enzymes were determined by the microbroth dilution method as recommended by the National Committee for Clinical Laboratory Standards (NCCLS). (NCCLS. 2000. Methods for Dilution Antimicrobial Susceptibility Tests for Bacteria That Grow Aerobically; Approved Standards: M7-A5, vol. 19. National Committee for Clinical Laboratory Standards, Villanova, Pa.). Mueller-Hinton II broth (MHBII)(BBL Cockeysville, Md.), was used for the testing procedure. Microtiter plates containing 50 μL per well of two-fold serial dilutions of piperacillin combined with a constant amount (4 ug/ml) of a B-lactamase inhibitor were inoculated with 50 μL of inoculum to yield the appropriate density (10^5 CFU/mL) in 100 μL final volume. The plates were incubated for 18-22 hours at 35° C. in ambient air. […] The MIC50 data obtained by the above said procedure are enlisted in Table 1. […] Both OXA-10 and PSE-2 are class D β-lactamases. (Bush, K. Jacoby, G. A., Medeiros, A. A. Antimicrob. Agents Chemother., 1995, 39, 1211.)

[2] = test system: E. coli GC 2883 (OXA-10 + PSE-2); experiment: as above; format: cell-based; details: Escherichia coli; piperacillin as control, without inhibitor

melting point: 198 °C
Structure (SMILES): O=C(O)C1=CS[C@@H]2/C(=C\c3cc4c(s3)CCN(Cc3ccccc3)C4)C(=O)N12 [Example 1, (5R,6Z)-6-[(5-benzyl-4,5,6,7-tetrahydrothieno[3,2-c]pyridin-2-yl)methylene]-7oxo-4-thia-1-azabicyclo[3.2.0]hept-2-ene-2-carboxylic acid]

Structure (SMILES): CN1CCn2cc(/C=C3/C(=O)N4C(C(=O)[O-])=CS[C@H]34)nc2C1.[Na+] [Example 2, (5R),(6Z)-6-(7-Methyl-5,6,7,8-tetrahydroimidazo[1,2-a]pyrazin-2-ylmethylene)-7-oxo-4-thia-1-aza-bicyclo[3.2.0]hept-2-ene-2-carboxylic acid, sodium salt]
Minimal Inhibitory Concentration (MIC50) Data [1]: 4 µg/mL

Structure (SMILES): O=C([O-])C1=CS[C@@H]2/C(=C\c3cn4c(n3)CNCC4)C(=O)N12.[Na+] [Example 3, (5R),(6Z)-7-Oxo-6-(5,6,7,8-tetrahydroimidazo[1,2-a]pyrazin-2-ylmethylene)-4-thia-1-azabicyclo[3.2.0]hept-2-ene-2-carboxylic acid, sodium salt]
Minimal Inhibitory Concentration (MIC50) Data [1]: 2 µg/mL

Structure (SMILES): COc1ccc(CN2CCc3sc(/C=C4/C(=O)N5C(C(=O)O)=CS[C@H]45)cc3C2)cc1 [Example 4]
Minimal Inhibitory Concentration (MIC50) Data [1]: 4 µg/mL

Structure (SMILES): O=C([O-])C1=CS[C@@H]2/C(=C\c3cn4c(n3)CSCC4)C(=O)N12.[Na+] [Example 5, (5R),(6Z)-6-(5,6-dihydro-8H-imidazo[2,1-c][1.4]thiazin-2-ylmethylene)-7-oxo-4-thia-1-azabicyclo[3.2.0]hept-2-ene-2-carboxylic acid, sodium salt]
Minimal Inhibitory Concentration (MIC50) Data [1]: 2 µg/mL

Structure (SMILES): O=C([O-])C1=CS[C@@H]2/C(=C\c3cn4c(n3)CCC4)C(=O)N12.[Na+] [Example 6, (5R),(6Z)-6-(6,7-Dihydro-5H-pyrrolo[1,2-a]imidazol-2-ylmethylene)-7-oxo-4-thia-1-aza-bicyclo[3.2.0]hept-2-ene-2-carboxylic acid, sodium salt]
Minimal Inhibitory Concentration (MIC50) Data [1]: 2 µg/mL

Structure (SMILES): O=C([O-])C1=CS[C@@H]2/C(=C\c3cn4c(n3)COCC4)C(=O)N12.[Na+] [Example 7, (5R),(6Z)-6-(5,6-Dihydro-8H-imidazo[2,1-c][1,4]oxazin-2-ylmethylene)-7-oxo-4-thia-1-azabicyclo[3.2.0]hept-2-ene-2-carboxylic acid, sodium salt]
Minimal Inhibitory Concentration (MIC50) Data [1]: 4 µg/mL

Structure (SMILES): O=C([O-])C1=CS[C@@H]2/C(=C\c3cc4n(n3)CCC4)C(=O)N12.[Na+] [Example 8, (5R),(6Z)-6-(5,6-Dihydro-4H-pyrrolo[1,2-b]pyrazol-2-ylmethylene)-7-oxo-4-thia-1-azabicyclo[3.2.0]hept-2-ene-2-carboxylic acid, sodium salt]
Minimal Inhibitory Concentration (MIC50) Data [1]: 4 µg/mL

Structure (SMILES): CN1Cc2nc(/C=C3/C(=O)N4C(C(=O)[O-])=CS[C@H]34)cn2CC1=O.[Na+] [Example 10, (5R),(6Z)-6-(7-Methyl-6-oxo-5,6,7,8-tetrahydro-imidazo[1,2-a]pyrazin-2-ylmethylene)-7-oxo-4-thia-1-aza-bicyclo[3.2.0]hept-2-ene-2-carboxylic acid sodium salt]
Minimal Inhibitory Concentration (MIC50) Data [1]: 8 µg/mL

melting point: > 250 °C
Structure (SMILES): CN1CCc2sc(C=C3C(=O)N4C(C(=O)O)=CSC34)cc2C1 (stereo not drawn) [Example 17, 6-(5-Methyl-4,5,6,7-tetrahydro-thieno[3,2-c]pyridin-2-ylmethylene)-7-oxo-4-thia-1-aza-bicyclo[3.2.0]hept-2-ene-2-carboxylic acid]

melting point: > 250 °C
Structure (SMILES): CCOC(=O)N1CCc2sc(C=C3C(=O)N4C(C(=O)O)=CSC34)cc2C1 (stereo not drawn) [Example 18, 2-(2-Carboxy-7-oxo-4-thia-1-aza-bicyclo[3.2.0]hept-2-en-6-ylidenemethyl)-6,7-dihydro-4H-thieno[3,2-c]pyridine-5-carboxylic acid ethyl ester]

Structure (SMILES): O=C([O-])C1=CS[C@@H]2/C(=C\c3cn4c(n3)CN(Cc3ccccc3)CC4)C(=O)N12.[Na+] [Example 20, (5R),(6Z)-6-(7-Benzyl-5,6,7,8-tetrahydroimidazo[1,2-a]pyrazin-2-ylmethylene)-7-oxo-4-thia-1-azabicyclo[3.2.0]hept-2-ene-2-carboxylic acid, sodium salt]
Minimal Inhibitory Concentration (MIC50) Data [1]: 16 µg/mL

Structure (SMILES): O=C(O)C1=CS[C@@H]2/C(=C\c3cc4c(s3)CCN(Cc3cccnc3)C4)C(=O)N12 [Example 21]
Minimal Inhibitory Concentration (MIC50) Data [1]: 8 µg/mL

Structure (SMILES): O=C(O)C1=CS[C@@H]2/C(=C\c3cc4c(s3)CCN(C(=O)c3cccnc3)C4)C(=O)N12 [Example 22]
Minimal Inhibitory Concentration (MIC50) Data [1]: 16 µg/mL

Structure (SMILES): O=C(O)C1=CS[C@@H]2/C(=C\c3cc4c(s3)CCN(C(=O)Cc3ccccc3)C4)C(=O)N12 [Example 23]
Minimal Inhibitory Concentration (MIC50) Data [1]: 8 µg/mL

Structure (SMILES): O=C([O-])C1=CS[C@@H]2/C(=C\c3cc4n(n3)CCS(=O)(=O)C4)C(=O)N12.[Na+] [Example 24, (5R),(6Z)-6-(5,5-Dioxo-4,5,6,7-tetrahydro-5λ^6-pyrazolo[5,1-c][1,4]thiazin-2-ylmethylene)-7-oxo-4-thia-1-azabicyclo[3.2.0]hept-2-ene-2-carboxylic acid, sodium salt]
Minimal Inhibitory Concentration (MIC50) Data [1]: 4 µg/mL

Structure (SMILES): O=C([O-])C1=CS[C@@H]2/C(=C\c3cc4n(n3)CCNC4)C(=O)N12.[Na+] [Example 25, (5R),(6Z)-7-Oxo-6-(4,5,6,7-tetrahydropyrazolo[1,5-a]pyrazin-2-ylmethylene)-4-thia-1-aza-bicyclo[3.2.0]hept-2-ene-2-carboxylic acid, sodium salt]
Minimal Inhibitory Concentration (MIC50) Data [1]: 4 µg/mL

Structure (SMILES): CC1(C)Cc2cc(/C=C3/C(=O)N4C(C(=O)[O-])=CS[C@H]34)nn2C1.[Na+] [Example 26, (5R)(6Z)-6-(5,5-Dimethyl-4H-1.6a-diazapentalen-2-ylmethylene)-7-oxo-4-thia-1-azabicyclo[3.2.0]hept-2-ene-2-carboxylic acid, sodium salt]
Minimal Inhibitory Concentration (MIC50) Data [1]: 4 µg/mL

Structure (SMILES): O=C([O-])C1=CS[C@@H]2/C(=C\c3cc4c(o3)CCC4)C(=O)N12.[Na+] [Example 27, (5R),(6Z)-6-(5,6-Dihydro-4H-cyclopenta[b]furan-2-ylmethylene)-7-oxo-4-thia-1-azabicyclo[3.2.0]hept-2-ene-2-carboxylic acid, sodium salt]
Minimal Inhibitory Concentration (MIC50) Data [1]: 2 µg/mL

Structure (SMILES): CC1(C)Cn2cc(/C=C3/C(=O)N4C(C(=O)[O-])=CS[C@H]34)nc2CN1.[Na+] [Example 29, (5R),(6Z)-6-(6,6-Dimethyl-5,6,7,8-tetrahydroimidazo[1,2-a]pyrizin-2-ylmethylene)-7-oxo-4-thia-1-azabicyclo[3.2.0]hept-2-ene-2-carboxylic acid, sodium salt]
Minimal Inhibitory Concentration (MIC50) Data [1]: 4 µg/mL

Structure (SMILES): O=C(O)C1=CS[C@@H]2/C(=C\c3cnc4n3CCSC4)C(=O)N12 [Example 30, (5R),(6Z)-6-(5,6-Dihydro-8-H-imidazo[2,1-c][1,4]thiazin-3-ylmethylene)-7-oxo-4-thia-1-azabicyclo[3.2.0]hept-2-ene-2-carboxylic acid]
Minimal Inhibitory Concentration (MIC50) Data [1]: 4 µg/mL

Structure (SMILES): CC(=O)N1CCc2sc(/C=C3/C(=O)N4C(C(=O)O)=CS[C@H]34)cc2C1 [Example 33, (5R,6Z)-6-[(5-acetyl-4,5,6,7-tetrahydrothieno[3,2-c]pyridin-2-yl)methylene]-oxo-4-thia-1-azabicyclo[3.2.0.]hept-2-ene-2-carboxylic acid]
Minimal Inhibitory Concentration (MIC50) Data [1]: 16 µg/mL

Structure (SMILES): O=C([O-])C1=CS[C@@H]2/C(=C\c3cc4n(n3)CCCO4)C(=O)N12.[Na+] [Example 35, (5R)(6Z)-6-(6,7-5H-Dihydropyrazolo[5,1-b]oxazin-2-Ylmethylene)-7-oxo-4-thia-1-azabicyclo[3.2.1]hept-2-ene-2-carboxylic acid, sodium salt]
Minimal Inhibitory Concentration (MIC50) Data [1]: 2 µg/mL

Structure (SMILES): O=C([O-])CCC(=O)N1CCn2nc(/C=C3/C(=O)N4C(C(=O)[O-])=CS[C@H]34)cc2C1.[Na+].[Na+] [Example 36, (5R),(6Z)-6-[5-(3-carboxypropionyl)-4,5,6,7-tetrahydropyrazolo[1,5-a]pyrazin-2-ylmethylene]-7-oxo-4-thia-1-azabicyclo[3.2.0]hept-2-ene-carboxylic acid, disodium salt]
Minimal Inhibitory Concentration (MIC50) Data [1]: 4 µg/mL

Structure (SMILES): COCC(=O)N1CCn2nc(/C=C3/C(=O)N4C(C(=O)[O-])=CS[C@H]34)cc2C1.[Na+] [Example 37, (5R),(6Z)-6-[5-(2-methoxyacetyl)-4,5,6,7-tetrahydropyrazolo[1,5-a]pyrazin-2-ylmethylene]-7-oxo-4-thia-1-azabicyclo[3.2.0]hept-2-ene-carboxylic acid, sodium salt]
Minimal Inhibitory Concentration (MIC50) Data [1]: 2 µg/mL

Structure (SMILES): O=C([O-])C1=CS[C@@H]2/C(=C\c3cc4n(n3)CCN(C3=NCCS3)C4)C(=O)N12.[Na+] [Example 38, (5R),(6Z)-6-[5-(4,5-Dihydrothiazol-2-yl)-4,5,6,7-tetrahydropyrazolo[1,5-a]pyrazin-2-ylmethylene]-7-oxo-4-thia-1-azabicyclo[3.2.0]hept-2-ene-2-carboxylic acid sodium salt]
Minimal Inhibitory Concentration (MIC50) Data [1]: 2 µg/mL

MIC50 [2]: > 64 µg/mL
Structure (SMILES): CCN1CCN(C(=O)N[C@@H](C(=O)N[C@@H]2C(=O)N3[C@@H]2SC(C)(C)[C@@H]3C(=O)O)c2ccccc2)C(=O)C1=O [piperacillin]
